Assays:
[1] = molecular target: Cytochrome P450 3A4 (Homo sapiens) (UniProt P08684); experiment: CYP3A4 and CYP3A5 inhibition, late-stage follow-up, counter-screen, biochemical, LC-MS/MS, purified recombinant enzymes (AID 686941); conditions: recombinant CYP3A4/CYP3A5, LC-MS/MS metabolite formation; CYP3A4
[2] = molecular target: Cytochrome P450 3A5 (Homo sapiens) (UniProt P20815); experiment: as above; conditions: recombinant CYP3A4/CYP3A5, LC-MS/MS metabolite formation, CYP3A5
Sequence of Cytochrome P450 3A5 (Homo sapiens) (P20815 whole entry, looked up): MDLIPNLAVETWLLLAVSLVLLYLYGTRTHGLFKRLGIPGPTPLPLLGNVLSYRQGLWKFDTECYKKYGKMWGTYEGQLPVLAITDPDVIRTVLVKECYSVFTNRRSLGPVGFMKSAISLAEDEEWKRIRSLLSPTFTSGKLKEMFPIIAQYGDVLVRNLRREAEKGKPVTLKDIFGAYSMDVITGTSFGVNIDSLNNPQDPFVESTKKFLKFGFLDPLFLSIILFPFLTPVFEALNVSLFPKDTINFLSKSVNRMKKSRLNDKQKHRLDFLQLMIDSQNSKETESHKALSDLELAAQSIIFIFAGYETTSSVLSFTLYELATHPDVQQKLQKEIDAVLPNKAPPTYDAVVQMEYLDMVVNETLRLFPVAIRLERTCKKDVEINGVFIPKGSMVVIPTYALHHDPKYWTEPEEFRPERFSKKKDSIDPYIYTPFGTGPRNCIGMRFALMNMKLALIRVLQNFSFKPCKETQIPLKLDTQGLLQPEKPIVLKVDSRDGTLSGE

Sequence of Cytochrome P450 3A4 (Homo sapiens) (P08684 whole entry, looked up): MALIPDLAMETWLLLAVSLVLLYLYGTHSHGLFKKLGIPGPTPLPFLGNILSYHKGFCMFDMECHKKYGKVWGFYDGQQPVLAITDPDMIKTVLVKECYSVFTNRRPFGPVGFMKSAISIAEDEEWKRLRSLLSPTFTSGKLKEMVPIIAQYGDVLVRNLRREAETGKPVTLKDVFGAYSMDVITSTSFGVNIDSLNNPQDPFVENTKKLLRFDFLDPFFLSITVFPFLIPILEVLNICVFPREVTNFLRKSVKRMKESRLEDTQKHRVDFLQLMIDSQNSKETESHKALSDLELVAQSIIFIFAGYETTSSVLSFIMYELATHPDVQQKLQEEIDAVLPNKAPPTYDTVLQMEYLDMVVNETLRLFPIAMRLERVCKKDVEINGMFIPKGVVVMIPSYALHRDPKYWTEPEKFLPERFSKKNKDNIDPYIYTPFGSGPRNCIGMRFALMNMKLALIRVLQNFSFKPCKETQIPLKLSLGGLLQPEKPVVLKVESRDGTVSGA

IC50 [1]	IC50 [2]	inhibition ([2]; at 60 µM, stronger effect = higher value)	Compound
1700 nM	13 µM	–	O=C(Nc1ccc(-c2ccc3ccccc3c2)cc1)Nc1ccc(-c2ccnc3nc[nH]c23)cc1
> 200 nM	–	26%	NC(=O)c1ccc(-c2ccc(NC(=O)Nc3ccc(-c4ccnc5nc[nH]c45)cc3)cc2)cc1
